Results: US20150366962A1 (priority 2014, published 2015)

Columns and labels:
[1] = Histological examination for reactogenicity (H&E, injected muscle); assay type: in vivo, BALB/c mice; details: for inflammation at the site of injection and systemically in comparison to AddaVax: 24 h after i.m. injection; for cellular infiltration in injected muscle (H&E): i.m. without antigen, 24 h after injection
From the text: Scale bars, 100 μm. […] The error bars indicate SEM.
Twenty-four hours after injection, muscle tissues at the injection sites and sera were harvested. The muscles were fixed in 10% buffered formalin and embedded in paraffin. Sections 5 μm thick were stained with hematoxylin and eosin (H&E) and examined under a microscope.

[2] = system: human monocyte-derived DCs; assay: Cytokine induction of human monocyte-derived dendritic cells (Luminex); assay type: cell-based; details: 10 μM, 18 h
Experimental: (§1) (A) Upregulation of antigen uptake by 1Z105. BMDCs prepared from C57BL/6 mice were incubated with 10 μM 1Z105 or MPLA overnight. Antigen, Alexa Fluor 488-conjugated ovalbumin (OVA-488), was added to the culture for the last 30 min of incubation. The cells were washed and stained for CD11c. OVA-associated dendritic cells in the CD11c^hi population were evaluated by flow cytometry. Cells incubated at 4° C. served as a negative control. (B and C) Enhancement of expression of costimulatory molecules by 1Z105.WT (B) or Tlr4^−/− (C) BMDCs were incubated with 1Z105 (10 or 2 μM) or MPLA (0.04 μg/ml) overnight, and expression of CD40 and CD86 was assessed by flow cytometric assay. (D) 1Z105 promotes antigen cross-presentation. […] OT-1 T-cell proliferation was monitored by flow-cytometric assay. […] Cytokine release of IL-1β, IL-6, IL-8, IL-12p70, and TNF-α was determined by Luminex bead assay. […]
Human primary dendritic cells (DCs) were generated. […] The supernatants were stored at −20° C. for later quantification of released cytokines. Quantification of IL-1β, IL-6, IL-8, IL-12p70, and tumor necrosis factor alpha (TNF-α) released in supernatants was performed using the Milliplex Multiplex Assays (Luminex; Millipore, Billerica, Mass.) according to the manufacturer's instructions. Data were analyzed using the Milliplex Analyst software (Millipore).

[3] = system: Mouse bone marrow-derived dendritic cells (mBMDCs); assay: Antigen (OVA-Alexa Fluor 488) uptake in mouse BMDCs, flow cytometry; assay type: cell-based, C57BL/6 mice; details: 10 μM 1Z105 or MPLA overnight, 37° C., OVA-488 last 30 min
Experimental: as §1, with “cross-presentation. Wild-type BMDCs were incubated with 1Z105 (2 μM) overnight, and OVA (10 μg/ml) was added to the culture for the last 4 h of incubation.” for “cross-presentation.”
Mouse bone marrow-derived dendritic cells (mBMDCs) were prepared from wild type or Tlr4^−/− C57BL/6 mice. mBMDCs (10^5 cells per well) were plated in 96-well plates in 200 μl of complete RPMI 1640. […] The cells were stained for CD11c, and OVA uptake and expression of CD40 and CD86 in the CD11chi-gated population was determined by flow cytometry.

[4] = system: rHA derived from A/Vietnam/1203/2004 (VN/04); set-up: species or system BALB/c mice; details: mouse, in vivo
[5] = system: Purified CD4+ or CD8+ T cells; assay: Purified CD4+ or CD8+ T cell proliferation; assay type: cell-based; details: in the presence of CD3 ligation
Experimental: Capability for induction of antigen specific CD8 T cells is one of the ideal features for adjuvants for cancer or herpes simplex virus infection. Thus, 1V270 and 1Z105 were examined to determine whether the agonists can directly induce T cell proliferation. Purified CD4+ or CD8+ T cells were incubated with 1Z105, 1V270 alone or in combination.

[6] = system: CD8+ OT-1 T cells cultured with BMDCs; assay: OT-1 CD8 T cell proliferation assay (antigen cross-presentation); assay type: cell-based, C57BL/6 mice; details: BMDCs with 1Z105 2 μM or MPLA 1 μg/ml overnight, OVA 10 μg/ml, 3 days
Experimental: (A) Upregulation of antigen uptake by 1Z105. BMDCs prepared from C57BL/6 mice were incubated with 10 μM 1Z105 or MPLA overnight. Antigen, Alexa Fluor 488-conjugated ovalbumin (OVA-488), was added to the culture for the last 30 min of incubation. The cells were washed and stained for CD11c. OVA-associated dendritic cells in the CD11c^hi population were evaluated by flow cytometry. Cells incubated at 4° C. served as a negative control. (B and C) Enhancement of expression of costimulatory molecules by 1Z105.WT (B) or Tlr4^−/− (C) BMDCs were incubated with 1Z105 (10 or 2 μM) or MPLA (0.04 μg/ml) overnight, and expression of CD40 and CD86 was assessed by flow cytometric assay. (D) 1Z105 promotes antigen cross-presentation. Wild-type BMDCs were incubated with 1Z105 (2 μM) overnight, and OVA (10 μg/ml) was added to the culture for the last 4 h of incubation. The cells were washed and cultured with CFSE-labeled CD8^+ OT1Tcells for 3 days. OT-1 T-cell proliferation was monitored by flow-cytometric assay. […] Cytokine release of IL-1β, IL-6, IL-8, IL-12p70, and TNF-α was determined by Luminex bead assay. […]
Naive CD8^+ T cells from OT-1 C57BL/6 mice were isolated using an EasySep Mouse CD8^+ T Cell Isolation Kit and stained with carboxyfluorescein succinimidyl ester (CFSE) (10 μM). […] OT-1 T cell proliferation was monitored by CFSE dilution using a flow cytometer.

[7] = in EV3 and EV7; requested 0.22-0.44 mg/mL

Row | SMILES | inflammation at the site of injection and systemically in comparison to AddaVax [1] | cellular infiltration in injected muscle (H&E) [1] | proinflammatory cytokine release (IL-1β, IL-6, IL-8, IL-12p70, TNF-α) [2] | OVA-associated CD11chi BMDCs (antigen uptake) [3] | IgG seroresponse [4] | purified CD4+ or CD8+ T cell proliferation [5] | proliferation of OT-1 cells (antigen cross-presentation) [6] | solubility of 1V270 [7]
1 | Cn1c2ccccc2c2nc(SCC(=O)NC3CCCCC3)n(-c3ccccc3)c(=O)c21 [Compound 1Z105] | minimal inflammation | minimal cellular infiltration | activated human monocyte-derived DCs, resulting in proinflammatory cytokine release | increased number | enhanced | enhanced purified CD4+ or CD8+T cell proliferation | induced proliferation of OT-1 cells | –
2 | CCCCCCCCC=CCCCCCCCC(=O)OCC(COP(=O)(O)OCCNC(=O)c1ccc(Cn2c(=O)[nH]c3c(N)nc(OCCOC)nc32)cc1)OC(=O)CCCCCCCC=CCCCCCCCC (stereo not drawn) [Compound 1V270] | minimal inflammation | minimal cellular infiltration | – | – | enhanced | enhanced purified CD4+ or CD8+T cell proliferation | – | achieved to the requested concentration
